Experiments:
[1] = test system: bentgrass (Agrostis) seeds [剪股颖(Agrostis)的种子]; test: Herbicidal activity test, seed germination inhibition in 24-well plate, bentgrass; format: in vivo
[2] = test system: lettuce seeds [生菜(Lettuce)种子]; test: Herbicidal activity test, seed germination inhibition in 24-well plate, lettuce; format: in vivo; settings: 1 mM

Compound	inhibition of germination of Agrostis seeds ([1]; 33 μM)	inhibition of lettuce seeds [2]	further results
CC(C)(C)c1ccc(CONC(=O)c2cccnc2Cl)cc1 [I-8]	较好的抑制		inhibition of germination of Agrostis seeds ([1]; 10 μM): 较好的抑制
O=C(NOCc1ccc(Br)cc1)c1cccnc1Cl [I-5]		一定抑制作用	
O=C(NOCc1ccccc1Cl)c1cccnc1Cl [I-14]			inhibition of germination of Agrostis seeds ([1]; 333 μM): 完全抑制
O=C(NOCc1cnc(Cl)s1)c1cccnc1Cl [I-1]	较好的抑制	一定抑制作用	
O=C(NOCc1ccccc1Br)c1cccnc1Cl [I-10]	较好的抑制		
O=C(NOCc1ccc(Cl)cc1Cl)c1cccnc1Cl [I-2]		一定抑制作用	
